Assay results taken from US6506417B1, “Composition and process for reducing bacterial citrus canker organisms” (FMC Technologies, Inc., priority 2001, dated 2003).

Legend:
[1] = tested on: Xanthomonas campestris pv. vesicatoria; conditions: 200 μg/ml; cited from earlier work
[2] = tested on: X. axonopodis pv. citrumelo; test: Dose-response study, 1 minute exposure to peracetic acid dilutions; type: cell-based
Experimental: Four strains of X. axonopodis pv. citrumelo were obtained from the Florida Department of Citrus and propagated in Nutrient Broth (Difco) at 22° C. with agitation for 48 to 72 hours. Cells were pelleted at 5,000 rpm/16 minutes, washed with Butterfield's Phosphate (pH 7.2) and resuspended in approximately 10% of the initial culture volume with Butterfield's Phosphate in order to concentrate the cells 10×. This final concentrate was used as the inoculum for the dose-response study. FMC VigorOx Liquid Sanitizer and Disinfectant (5% peracetic acid) and VigorOx SP-15 Antimicrobial Agent (15% peracetic acid) were diluted to final peracetic acid concentrations of 0 ppm (control), 5 ppm, 10 ppm, 20 ppm, 30 ppm, 40 ppm, 50 ppm, 60 ppm, 70 ppm, and 80 ppm with distilled water. Each variable was dispensed in 9.9 ml aliquots in sterile test tubes.
A 0.1 ml aliquot of the inoculum was added to each peracetic acid variable, shaken, and allowed to remain exposed to the solution for 1 minute. […]
Data summaries of trials performed on each product are expressed in the following tables. […] The initial inoculum was determined to contain 2.9×10^11 cfu/ml X. axonopodis, and the initial level of X. axonopodis exposed to each concentration of peracetic acid was determined to be 2.9×10^9 cfu/ml.

CC(=O)OO [peroxyacetic acid]
level of eradication [1]: acceptable level of eradication comparable to approved chlorine treatments | reduction of X. axonopodis ([2]; 30 parts per million peroxyacetic acid, and above): > 99.9% | significant reduction of X. axonopodis ([2]; greater than 10 but less than 20 parts per million peroxyacetic acid): > 1 log10 cfu/ml
